Eleven molecules from patent US6770638B2, “Tetrahydroindolone and purine derivatives linked to arylpiperazines” (Spectrum Pharmaceuticals, Inc., priority 2001, dated 2004) can be followed below.

Data set [1] in a line: Membrane permeability (Papp) across Caco-2 cell monolayers. The data set is classed as in vitro ADME. Particulars: human, Caco-2 monolayer; for Papp A→B: apical to basolateral, read-out: Papp (cm/s × 10^6) AP-to-BL; for Papp B→A: basolateral to apical, read-out: Papp (cm/s × 10^6) BL-to-AP; for efflux ratio: read-out: RATIO Papp^B-A/Papp^A-B. (In general: Passage across Caco-2 layers is used to estimate intestinal permeability.)

A further data set has as its system Caco-2 cells. The description is as above. The settings on record: Caco-2; for EFFLUX LIMITED: Yes/No; for PERMEABILITY: class in words (High/Low). The data set is classed as in vitro ADME.
In another data set the test system is mice. In words: Conditioned avoidance responding (CAR, active avoidance). Particulars: SC to mice, 20 minutes before test session. The data set is classed as in vivo. As to the method: Training: Consists of 20 trials with variable inter-trial intervals (Trained to 80% Avoidance Criteria). After a one-minute acclimation period, the house light and an acoustic 90 dB tone (conditioned stimuli) are presented. A response (crossing to dark compartment) within 5 seconds ends the trial and trial is recorded as avoidance response (CAR). […] To avoid shock, animals learn to move from the lighted side of the -chamber to the dark side when the cue is presented (avoidance) or moved when the shock is administered (escape). Testing: Vehicle or test compounds are administered S.C. 20 minutes before the test session. (Checking for disruption of cognition and attention)

In the next data set the test system is male C-57 mice. Briefly: PCP disruption of pre-pulse inhibition of the acoustic startle response. Particulars: route not given (method: PO or SC); PCP 5 mg/kg IP. Format: in vivo. As to the method: The non-competitive NMDA receptor antagonist phencyclidine (PCP) reduces pre-pulse inhibition (PPI) of the acoustic startle response in rodents. Identifying compounds that improve the PCP-induced deficits in pre-pulse inhibition may provide insight into therapeutic strategies for treating schizophrenia. For testing of PPI, male C-57 mice were assigned to five dose groups of eight animals per group, and vehicle or test compound were administered orally (PO) or subcutaneously (SC) 20 minutes prior to intraperitoneal (IP) administration of vehicle or PCP (5 mg/kg). Ten minutes following PCP administration, the mice were placed into Hamilton-Kinder startle chambers and evaluation of pre-pulse inhibition procedure was performed. Following a five-minute acclimatization period with background white noise (65 db), mice were exposed to five different trial types. Trials were presented […] in a quasi-random order, with randomized 5 to 25 second inter-trial intervals. Trials were: stimulus only trial (120 db white noise, 50 ms stimulus); two different prepulse+pulse trials in which a 20 ms 5 db, or 10 db stimuli above a 65 db background preceded the 120 db pulse by 120 ms; a 10 db prepulse without a 120 db pulse; and a no stimulus trial, in which only the background noise was presented.

Take `CC(C)NCC(O)COc1cccc2ccccc12` (stereo not shown) [Propranolol, reference compound]: the Papp A→B in data set [1] was 17.3 ± 2.3 ×10⁻⁶ cm/s. In the data set with Caco-2 cells, the “EFFLUX LIMITED” value was “No” and the PERMEABILITY result is reported as “High”.
With `COc1ccccc1N1CCN(CCn2ccc3c2CCCC3=O)CC1` [NEO-377, 1-{2-[4-(2-Methoxyphenyl)-piperazin-1-yl]-ethyl}-1,5,6,7-tetrahydroindol-4-one], in data set [1], the Papp A→B was 26 ± 1.8 ×10⁻⁶ cm/s, the Papp B→A is 15.5 ± 2.9 ×10⁻⁶ cm/s and the efflux ratio stood at 0.6. Also, in the data set with Caco-2 cells, the “EFFLUX LIMITED” value is given as “No” and the PERMEABILITY result was “High”. Further, in the data set with mice, the “Conditioned Avoidance Responding, effect on avoidance” value is recorded as “Significant reduction in avoidance” and the “Conditioned Avoidance Responding, effect on latency” value is given as “Significant increase in latency”.
In the case of `O=C1CCCc2c1ccn2CCCN1CCN(c2cccc(C(F)(F)F)c2)CC1` [NEO-356, 1-{3-[4-(3-Trifluoromethylphenyl)piperazin-1-yl]propyl}-1,5,6,7-tetrahydroindol-4-one], in data set [1], the Papp A→B was 21.5 ± 2.9 ×10⁻⁶ cm/s, the Papp B→A worked out at 8.8 ± 0.3 ×10⁻⁶ cm/s and the efflux ratio is 0.41. Also, in the data set on Caco-2 cells, the “EFFLUX LIMITED” value was “No” and the PERMEABILITY result is listed as “High”. Further, the “PCP Disruption of Pre-pulse Inhibition, result in words” value (“PCP Disruption of Pre-pulse Inhibition” below) in the data set on male C-57 mice is “No reversal”. The “Conditioned Avoidance Responding, overall effect / effect on escape or avoidance” value in the data set with mice is “No effect”.
As for `O=C1CCCc2c1ccn2CCCN1CCN(c2cccc(Cl)c2)CC1` [NEO-363, 1-{3-[4-(3-Chlorophenyl)piperazine-1-yl]propyl}-1,5,6,7-tetrahydroindol-4-one], in data set [1], the Papp A→B was found to be 18 ± 0.7 ×10⁻⁶ cm/s, the Papp B→A turned out to be 13.1 ± 1.1 ×10⁻⁶ cm/s and the efflux ratio amounted to 0.75. Further, in the data set on Caco-2 cells, the “EFFLUX LIMITED” value is reported as “No” and the PERMEABILITY entry was “High”. Further, in the data set with mice, the “Conditioned Avoidance Responding, overall effect / effect on escape or avoidance” value is listed as “No effect”.
With `O=C1CCCc2c1ccn2CCCN1CCN(c2ncccn2)CC1` [NEO-381, 1-{3-[4-(2-Pyrimidyl)piperazine-1-yl]propyl}-1,5,6,7-tetrahydroindol-4-one], in data set [1], the Papp A→B was found to be 32.9 ± 9.6 ×10⁻⁶ cm/s, the Papp B→A is 25.3 ± 0.7 ×10⁻⁶ cm/s and the efflux ratio was 0.77. Also, in the data set with Caco-2 cells, the “EFFLUX LIMITED” value is on record as “No” and the PERMEABILITY result was “High”. For the same molecule, the “PCP Disruption of Pre-pulse Inhibition” value with male C-57 mice is “No reversal”. The “Conditioned Avoidance Responding, overall effect / effect on escape or avoidance” value in the data set on mice was “No effect”.
Take `O=C1CCCc2c1ccn2CCN1CCN(c2cccc(C(F)(F)F)c2)CC1` [NEO-359, 1-{2-[4-(3-Trifluoromethylphenyl)piperazine-1-yl]ethyl}-1,5,6,7-tetrahydroindol-4-one]: in data set [1], the Papp A→B turned out to be 24 ± 3.9 ×10⁻⁶ cm/s, the Papp B→A is 7.6 ± 0.5 ×10⁻⁶ cm/s and the efflux ratio was determined as 0.32. For the same molecule, in the data set on Caco-2 cells, the “EFFLUX LIMITED” value is given as “No” and the PERMEABILITY result is “High”. Moreover, the “PCP Disruption of Pre-pulse Inhibition” value with male C-57 mice is “No reversal”. Moreover, in the data set on mice, the “Conditioned Avoidance Responding, effect on latency” value is reported as “Significant decrease in latency” and the “Conditioned Avoidance Responding, overall effect / effect on escape or avoidance” value was “No effect on escape or avoidance”.
For `O=C1CCCc2c1ccn2CCN1CCN(c2cccc(Cl)c2)CC1` [NEO-376, 1-{2-[4-(3-Chloro-phenyl)-piperazin-1-yl]-ethyl}-1,5,6,7-tetrahydroindol-4-one], in data set [1], the Papp A→B came out at 20.4 ± 1.8 ×10⁻⁶ cm/s, the Papp B→A is 9.4 ± 0.3 ×10⁻⁶ cm/s and the efflux ratio is 0.43. Moreover, in the data set with Caco-2 cells, the “EFFLUX LIMITED” value is recorded as “No” and the PERMEABILITY result is “High”. In the data set on mice, the “Conditioned Avoidance Responding, effect on latency” value is “significant increase in latency” and the “Conditioned Avoidance Responding, overall effect / effect on escape or avoidance” value is “No effect on escape or avoidance”.
As for `Cc1nc2n(c(=O)c1CCN1CCC(c3noc4cc(F)ccc34)CC1)CCCC2` [Risperidone, risperidone, reference compound], in data set [1], the Papp A→B is 21.5 ± 0.2 ×10⁻⁶ cm/s and the Papp B→A was 14 ± 3.1 ×10⁻⁶ cm/s. Besides, in the data set with Caco-2 cells, the “EFFLUX LIMITED” value was “No” and the PERMEABILITY result is reported as “High”. In the data set on mice, the “Conditioned Avoidance Responding, effect on avoidance” value is reported as “Significant reduction in avoidance” and the “Conditioned Avoidance Responding, effect on latency” value is “Significant increase in latency”.
Take `CN1CCN(C2=Nc3cc(Cl)ccc3Nc3ccccc32)CC1` [Clozapine, clozapine, reference compound]: in data set [1], the Papp A→B is 15.3 ± 0.7 ×10⁻⁶ cm/s, the Papp B→A was found to be 7.4 ± 1.1 ×10⁻⁶ cm/s and the efflux ratio came out at 0.65. In the data set on Caco-2 cells, the “EFFLUX LIMITED” value was “No” and the PERMEABILITY result is “High”.
Take `COc1ccccc1N1CCN(CCCn2ccc3c2CCCC3=O)CC1` [NEO-370, 1-{3-[4-(2-Methoxyphenyl)piperazine-1-yl]propyl}-1,5,6,7-tetrahydroindol-4-one]: in data set [1], the Papp A→B was 32.1 ± 8.1 ×10⁻⁶ cm/s, the Papp B→A was 20 ± 3.4 ×10⁻⁶ cm/s and the efflux ratio came out at 0.67. Besides, in the data set with Caco-2 cells, the “EFFLUX LIMITED” value was “No” and the PERMEABILITY result is “High”. Besides, in the data set on mice, the “Conditioned Avoidance Responding, effect on avoidance” value is recorded as “Significant reduction in avoidance” and the “Conditioned Avoidance Responding, effect on latency” value is listed as “Significant increase in latency”.
Consider `O=C1CCCc2c1ccn2CCCCN1CCN(c2cccc(C(F)(F)F)c2)CC1` [NEO-392, 1-{4-[4-(3-Trifluoromethylphenyl)piperazin-1-yl]-butyl}-1,5,6,7-tetrahydroindol-4-one], for which, in data set [1], the Papp A→B is 27.1 ± 1.2 ×10⁻⁶ cm/s, the Papp B→A is 15.7 ± 1.3 ×10⁻⁶ cm/s and the efflux ratio was found to be 0.58. Moreover, in the data set with Caco-2 cells, the “EFFLUX LIMITED” value is reported as “No” and the PERMEABILITY result is reported as “High”. In the data set with mice, the “Conditioned Avoidance Responding, effect on avoidance” value is recorded as “Significant reduction in avoidance” and the “Conditioned Avoidance Responding, effect on latency” value was “Significant increase in latency”.
